In PubChem BioAssay AID485340 (Southern Research Specialized Biocontainment Screening …, 2010) one finds IC50 data, which are given here for 25 compounds.

This assay relates to M. tuberculosis growth, meropenem IC50 shift with compound. Nature of the assay: confirmation, meropenem IC50 shift (AID 485340).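 Note: growth read after one week of culture plus overnight Alamar Blue.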
Setting [1] is: compound alone IC50 vs Mtb, compound dose (near its own IC50) 9.38 µM.
Setting [2] is: compound dose (near its own IC50) 9.38 µM.
Setting [3] is: compound alone IC50 vs Mtb, compound dose (near its own IC50) 4.69 µM.
Where [4] appears, read: compound dose (near its own IC50) 4.69 µM.
The mark [5] stands for this setting: compound alone IC50 vs Mtb, compound dose (near its own IC50) 2.35 µM.
Setting [6] is: compound dose (near its own IC50) 2.35 µM.
[7] abbreviates: compound alone IC50 vs Mtb, compound dose (near its own IC50) 1.18 µM.
Where [8] appears, read: compound dose (near its own IC50) 1.18 µM.

Calls of active or inactive are those of the source. The rule behind the calls is not given here.

With `COc1cccc(-c2ccc(-c3noc(-c4ccccc4F)n3)c(OC)n2)c1`, the IC50 is 9.65 µM under setting [1] and 4.08 µM (inactive) under setting [2].
For the compound `O=C(N/N=C/c1cc([N+](=O)[O-])ccc1O)C1CC1`, the IC50 is, setting by setting: under setting [3], 4.14 µM; under setting [4], 5.6 µM (inactive).
`c1ccc(-c2cc(N3CCOCC3)nc3ccccc23)cc1`: the 50% inhibitory concentration (IC50) is 2.78 µM under setting [5] and 3.41 µM (inactive) under setting [6].
Regarding `N#Cc1c(-c2cccs2)cc(-c2ccccn2)nc1N`, the half-inhibitory concentration (IC50) reads like this: under setting [1], 6.92 µM; under setting [2], 0.73 µM.
For the compound `CC(C)CCN1CC(O)=C(c2nc3ccccc3[nH]2)C1=N`, the IC50 under setting [3] is 6.68 µM and the IC50 under setting [4] is 4.06 µM (inactive).
On to `CSc1nc2cc3c(cc2n1C(=O)c1ccc(C)cc1)OCCO3`, for which the IC50 under setting [3] is 5.15 µM and the IC50 under setting [4] was 4.06 µM (inactive).
The corresponding values for `C/C(=N\NC(=O)c1cc2c(s1)CCC(C)C2)c1ccc[nH]1` (stereo not given) are 6.51 µM and 1.98 µM (inactive).
The corresponding values for `COc1cc(C(=O)N/N=C/c2ccc(OC(=O)c3cccc(C)c3)cc2)ccc1O` are 4.54 µM and 4.14 µM (inactive).
For `S=C(Nc1ccccc1)Nc1ccc(Cl)cn1`, in that order: 4.68 µM and 4.86 µM (inactive).
For the compound `CCCN1C(=O)S/C(=C/c2ccc(N3CCOCC3)o2)C1=O`, the concentration for half-maximal inhibition (IC50) (compound alone IC50 vs Mtb, compound dose (near its own IC50) 0.15 µM) came out at 0.2 µM and the IC50 (compound dose (near its own IC50) 0.15 µM) is 5.45 µM (inactive).
In the case of `CO/N=C(\C(=O)N[C@@H]1C(=O)N2C(C(=O)O)=C(COC(C)=O)CS[C@H]12)c1csc(N)n1` (stereo in doubt), the half-inhibitory concentration (IC50) was 10.3 µM under setting [1] and 1.01 µM (inactive) under setting [2].
In the case of `COC(=O)c1c(-c2ccc(OC)cc2)oc2ccc(-c3cc(OC)c(OC)c(OC)c3)cc12`, the IC50 under setting [1] stood at 7.72 µM and the IC50 under setting [2] is 6.1 µM (inactive).
`Cc1onc(-c2c(Cl)cccc2Cl)c1/C(N)=N/OC(=O)C1CC1`: the IC50 under setting [5] is 2.05 µM and the IC50 under setting [6] is 1.02 µM (inactive).
The corresponding values for `Cc1c(OCc2ccc(C(=O)O)cc2)ccc2c(-c3ccccc3)cc(=O)oc12` are 1.42 µM and 2.62 µM (inactive).
The corresponding values for `Cc1cc(NC(=O)/C=C/c2ccccc2Cl)n(-c2nc3ccccc3[nH]2)n1` are 1.94 µM and 5.88 µM (inactive).
`O=C(Nc1cccc(Cl)c1N1CCOCC1)c1ccc([N+](=O)[O-])o1`: the IC50 is 0.909 µM under setting [7] and 7.42 µM (inactive) under setting [8].
The corresponding values for `O=C1O/C(=C/c2ccccc2)N=C1c1ccccc1` are 1.34 µM and 4.56 µM (inactive).
For the compound `N=C1C(c2nc3ccccc3[nH]2)=C(O)CN1c1ccc(F)cc1`, the IC50 reads like this: under setting [1], 7.73 µM; under setting [2], 4.04 µM (inactive).
For `CC(C)=CCC/C(C)=C/C=N/NC(=O)c1ccc([N+](=O)[O-])cc1`, the IC50 by setting is: under setting [7], 1.02 µM; under setting [8], 3.4 µM (inactive).
Take `C/C(=N\NC(=S)Nc1ccccc1C)c1ccc(O)cc1`: the IC50 runs as follows: (compound alone IC50 vs Mtb, compound dose (near its own IC50) 0.59 µM) 0.552 µM; (compound dose (near its own IC50) 0.59 µM) 7.22 µM (inactive).
As to `Cc1nnc(SCC2=C(C(=O)O)N3C(=O)C(NC(=O)COc4ccc(F)cc4)C3SC2)s1` (stereo not given), the IC50 runs as follows: under setting [5], 1.74 µM; under setting [6], 1.04 µM (inactive).
On to `CC(=O)c1c(C)[nH]c(C(=O)OCC(=O)Nc2nnc(-c3ccccc3)o2)c1C`, for which the concentration for half-maximal inhibition (IC50) reads like this: under setting [3], 4.19 µM; under setting [4], 7.02 µM (inactive).
`C=C1C(=O)O[C@@H]2[C@H]1[C@@H](OC(=O)/C(C)=C/C)C/C(C)=C\C(=O)/C=C(\C)[C@@H]2O`: the concentration for half-maximal inhibition (IC50) under setting [7] was found to be 1.24 µM and the IC50 under setting [8] is 6.46 µM (inactive).
As to `COc1cccc(/C=N/NC(=O)c2cnccn2)c1O`, the IC50 under setting [5] turned out to be 2.58 µM and the IC50 under setting [6] is 3.28 µM (inactive).
As to `COc1c(F)c(F)c(C(=O)Nc2c(C)cc(Br)cc2C)c(F)c1F`, the IC50 runs as follows: under setting [3], 4.58 µM; under setting [4], 5.02 µM (inactive).

A word on the IC50: it is the concentration that inhibits the measured activity by half.
